Laboratory results reported in patent US20120270935A1, “FORMULATIONS” (priority 2009, published 2012).
Converted amounts (≈) assume the structure as drawn. Where two headings read alike, the source gives them in different places.

What was measured:
[1] = test system: S. aureus ATCC 29213; assay: Disc diffusion assay (DDA); type: cell-based, Staphylococcus aureus; details: 200 μg per disc, Mueller-Hinton agar pH 7.0, overnight at 37° C. in air
Text: (§1) (a) staphylococci. The Staphylococcus aureus strain used was ATCC 29213. S. aureus and other staphylococci are common causes of a wide range of skin, skin structure and wound infections; S. aureus is also known to exacerbate eczema. The ATCC 29213 strain is known to be susceptible to beta-lactam antibiotics such as methicillin. The Staphylococcus epidermidis strain used was NCTC 11047. Staph. epidermidis forms part of the resident flora of skin and is an opportunistic pathogen which can cause biofilms to grow for instance on plastic surgical implants such as catheters. Unless otherwise stated, the staphylococci were cultured and maintained on Mueller-Hinton Medium (agar and broth) at pH 7.2; cultures were incubated aerobically at 37° C. for 19-20 hours, at pH 7 (±0.2). (b) C. striatum NCTC 764. Corynebacterium striatum is closely related to organisms (aerobic diphtheroids of the genus Corynebacterium) that cause body odour. It was cultured and maintained on Mueller-Hinton medium (agar and broth). All cultures were incubated aerobically at 37° C. for 72 hours, at pH 7 (±0.2). (c) streptococci. The strains tested were S. mutans ATCC 25175 and S. pyogenes ATCC 12344. S. mutans is a Gram-positive, microaerophilic bacterium which plays a significant role in dental caries and in infective endocarditis. Streptococcus pyogenes is associated with skin, soft tissue, burn and wound infections. […]
A sterile paper disc was impregnated with a sample of the test compound in a suitable solvent and 30 minutes allowed for the solvents to evaporate (where possible). […] The diameter of this zone of “inhibition” was measured using a ProtoCOL™ automated zone sizer (Synbiosis, Cambridge, UK). […]
(§2) Example 8 was repeated (except for the supplemented DDA assays), using S. aureus ATCC 29213 as the test organism. […] In the DDA assays, 200 μg is of each compound was loaded onto each disc: the culture medium was Mueller-Hinton agar at pH 7.0, and results were recorded after overnight incubation at 37° C. in air. […]

[2] = test system: P. granulosum; assay: Agar dilution MIC assay, panel of propionibacterium strains; type: cell-based, Propionibacterium granulosum; details: resistance MLSK
Experimental: This is a standard international method for quantitatively assessing the antimicrobial activity of a compound in a solid medium. The test compound was prepared to 40× the highest concentration required (eg 10 mg/ml for a final concentration of […]) and a series of doubling dilutions were performed in a suitable solvent. A set amount of these antimicrobial stock solutions was then added to molten agar medium (ca 55° C.), mixed thoroughly, poured into sterile Petri dishes and allowed to cool/set. The culture medium was as described above.
A Multipoint™ Inoculator (AQS Manufacturing Ltd, UK) was used to inoculate the plates by spotting the inocula onto the surface of the agar, delivering approximately 1 to 2 μl per spot (yielding 10^5 CFU (colony forming units) per spot).
The plate(s) were then incubated under the conditions described above, following which they were examined visually for signs of bacterial growth. The MIC value was ascertained when there was a marked reduction in, or total loss of, growth on the test plate at the lowest concentration as compared to that of the growth on the control plate.
The assays were conducted in triplicate and included a positive control (culture medium, diluting solvent and inoculum).
The activity (MIC by agar dilution) of copper usnate was determined against a panel of different propionibacterium strains. […]

[3] = test system: C. striatum NCTC 764; assay: MBC assay; type: cell-based, Corynebacterium striatum; details: triplicate
Text: (§3) (a) staphylococci. The Staphylococcus aureus strain used was ATCC 29213. S. aureus and other staphylococci are common causes of a wide range of skin, skin structure and wound infections; S. aureus is also known to exacerbate eczema. The ATCC 29213 strain is known to be susceptible to beta-lactam antibiotics such as methicillin. The Staphylococcus epidermidis strain used was NCTC 11047. Staph. epidermidis forms part of the resident flora of skin and is an opportunistic pathogen which can cause biofilms to grow for instance on plastic surgical implants such as catheters. Unless otherwise stated, the staphylococci were cultured and maintained on Mueller-Hinton Medium (agar and broth) at pH 7.2; cultures were incubated aerobically at 37° C. for 19-20 hours, at pH 7 (±0.2). (b) C. striatum NCTC 764. Corynebacterium striatum is closely related to organisms (aerobic diphtheroids of the genus Corynebacterium) that cause body odour. It was cultured and maintained on Mueller-Hinton medium (agar and broth). All cultures were incubated aerobically at 37° C. for 72 hours, at pH 7 (±0.2). (c) streptococci. The strains tested were S. mutans ATCC 25175 and S. pyogenes ATCC 12344. S. mutans is a Gram-positive, microaerophilic bacterium which plays a significant role in dental caries and in infective endocarditis. Streptococcus pyogenes is associated with skin, soft tissue, burn and wound infections. S. mutans was cultured and maintained on Wilkins-Chalgren Anaerobe medium+1 g/L glucose (agar and broth); it was incubated in air at 37° C. for 48 hours, at pH 7 (±0.2) with 5% carbon dioxide. S. pyogenes was cultured and maintained on Mueller-Hinton medium (broth and agar) and was incubated under the same conditions as S. mutans.
This assay, normally carried out after an MIC assay, determines the minimum concentration of a compound that is lethal to the micro-organism being tested.
These samples were then individually sub-cultured on antibiotic-free agar medium, under the incubation conditions described above. Following incubation they were examined visually for microbial growth. […]

[4] = test system: S. aureus ATCC 29213; assay: MIC assay; type: cell-based, Staphylococcus aureus; details: Mueller-Hinton broth pH 7.0
Text: as §1, with “endocarditis.” for “endocarditis. Streptococcus pyogenes is associated with skin, soft tissue, burn and wound infections.”
(§4) This is a standard international method for quantitatively assessing the antimicrobial activity of a compound in a liquid medium. […]
(§5) The wells were inoculated with a liquid suspension of freshly grown micro-organism and incubated under the conditions described above. […] The MIC value was recorded as the lowest concentration of test compound required to inhibit microbial growth, ie the lowest concentration for which the liquid in the well remained clear. […]
as §2

[5] = test system: C. striatum NCTC 764; assay: MIC assay; type: cell-based, Corynebacterium striatum; details: triplicate
Text: as §3, with “S. pyogenes was cultured and maintained on Mueller-Hinton medium (broth and agar) and was incubated under the same conditions as S. mutans.” left out
as §4, §5

[6] = test system: S. aureus ATCC 29213; assay: MBC assay; type: cell-based, Staphylococcus aureus; details: Mueller-Hinton broth pH 7.0
Text: as §3, with “mutans. […]” for “mutans.”
as §2

[7] = test system: S. epidermidis NCTC 11047; assay: MBC assay; type: cell-based, Staphylococcus epidermidis; details: Mueller-Hinton broth pH 7.0
Text: as §1, with “(±0.2).” for “(±0.2). (c) streptococci. The strains tested were S. mutans ATCC 25175 and S. pyogenes ATCC 12344. S. mutans is a Gram-positive, microaerophilic bacterium which plays a significant role in dental caries and in infective endocarditis. Streptococcus pyogenes is associated with skin, soft tissue, burn and wound infections.”
as §2

SMILES	DDA zone diameter [1] [mm]	MIC ([2]; P. granulosum PRP-005, Erm X) [µg/mL]	MIC ([2]; P. granulosum PRP-019, Erm X) [µg/mL]	MBC [3] [µg/mL]	MIC [4] [µg/mL]	MIC [5] [µg/mL]	MBC [6] [µg/mL]	MBC [7] [µg/mL]	zone of inhibition at 200 µg/disc ([1]; Staphylococcus aureus, ATCC29213, read-out: DDA zone diameter) [mm]	MBC ([3]; Corynebacterium striatum, NCTC764, read-out: MBC) [µg/mL]	MIC ([4]; Staphylococcus aureus, ATCC29213, read-out: MIC) [µg/mL]	MIC ([5]; Corynebacterium striatum, NCTC764, read-out: MIC) [µg/mL]	MBC ([6]; Staphylococcus aureus, ATCC29213, read-out: MBC) [µg/mL]
CC(=O)c1c([O-])c(C)c([O-])c2c1OC1=CC(=O)C(C(C)=O)C(=O)C12C.[Cu+2] (stereo not shown) [Copper usnate, copper (II) usnate]	14.8 ± 0.3	1.95	1.95	62.5	7.8	3.9	62.5	62.5					
CC(=O)c1c(O)c(C)c(O)c2c1OC1=CC(=O)C(C(C)=O)C(=O)C12C (stereo not shown) [Usnic acid, 2,6-diacetyl-7,9-dihydroxy-8,9b-dimethyl-1,3(2H,9bh)-dibenzofurandione]									13.6 ± 0.3	62.5 (≈ 182 µM)	31.2 (≈ 90.8 µM)	7.8 (≈ 22.7 µM)	250 (≈ 726 µM)
